Assay results reported in the kinase profiling compilation of Christmann-Franck et al. (2016).

Tests used:
Experiment in all cases: KINOMEscan competition binding
Conditions in all cases: compound 10.0 µM
[1] = test system: EGFR (human), P00533 [L858R]
[2] = target: TYK2 JH1 catalytic (human) (UniProt P29597)
[3] = test system: EGFR (human), P00533 [P753S; 747-752 del]
BRSK1 (human) = BRSK1 (human) (UniProt Q8TDC3)
PAK2 (human) = PAK2 (human) (UniProt Q13177)
PAK7 (human) = PAK7 (human) (UniProt Q9P286)
CDC42BPB (human) = CDC42BPB (human) (UniProt Q9Y5S2)
Chain of CDC42BPB (human) (Q9Y5S2 whole entry, looked up): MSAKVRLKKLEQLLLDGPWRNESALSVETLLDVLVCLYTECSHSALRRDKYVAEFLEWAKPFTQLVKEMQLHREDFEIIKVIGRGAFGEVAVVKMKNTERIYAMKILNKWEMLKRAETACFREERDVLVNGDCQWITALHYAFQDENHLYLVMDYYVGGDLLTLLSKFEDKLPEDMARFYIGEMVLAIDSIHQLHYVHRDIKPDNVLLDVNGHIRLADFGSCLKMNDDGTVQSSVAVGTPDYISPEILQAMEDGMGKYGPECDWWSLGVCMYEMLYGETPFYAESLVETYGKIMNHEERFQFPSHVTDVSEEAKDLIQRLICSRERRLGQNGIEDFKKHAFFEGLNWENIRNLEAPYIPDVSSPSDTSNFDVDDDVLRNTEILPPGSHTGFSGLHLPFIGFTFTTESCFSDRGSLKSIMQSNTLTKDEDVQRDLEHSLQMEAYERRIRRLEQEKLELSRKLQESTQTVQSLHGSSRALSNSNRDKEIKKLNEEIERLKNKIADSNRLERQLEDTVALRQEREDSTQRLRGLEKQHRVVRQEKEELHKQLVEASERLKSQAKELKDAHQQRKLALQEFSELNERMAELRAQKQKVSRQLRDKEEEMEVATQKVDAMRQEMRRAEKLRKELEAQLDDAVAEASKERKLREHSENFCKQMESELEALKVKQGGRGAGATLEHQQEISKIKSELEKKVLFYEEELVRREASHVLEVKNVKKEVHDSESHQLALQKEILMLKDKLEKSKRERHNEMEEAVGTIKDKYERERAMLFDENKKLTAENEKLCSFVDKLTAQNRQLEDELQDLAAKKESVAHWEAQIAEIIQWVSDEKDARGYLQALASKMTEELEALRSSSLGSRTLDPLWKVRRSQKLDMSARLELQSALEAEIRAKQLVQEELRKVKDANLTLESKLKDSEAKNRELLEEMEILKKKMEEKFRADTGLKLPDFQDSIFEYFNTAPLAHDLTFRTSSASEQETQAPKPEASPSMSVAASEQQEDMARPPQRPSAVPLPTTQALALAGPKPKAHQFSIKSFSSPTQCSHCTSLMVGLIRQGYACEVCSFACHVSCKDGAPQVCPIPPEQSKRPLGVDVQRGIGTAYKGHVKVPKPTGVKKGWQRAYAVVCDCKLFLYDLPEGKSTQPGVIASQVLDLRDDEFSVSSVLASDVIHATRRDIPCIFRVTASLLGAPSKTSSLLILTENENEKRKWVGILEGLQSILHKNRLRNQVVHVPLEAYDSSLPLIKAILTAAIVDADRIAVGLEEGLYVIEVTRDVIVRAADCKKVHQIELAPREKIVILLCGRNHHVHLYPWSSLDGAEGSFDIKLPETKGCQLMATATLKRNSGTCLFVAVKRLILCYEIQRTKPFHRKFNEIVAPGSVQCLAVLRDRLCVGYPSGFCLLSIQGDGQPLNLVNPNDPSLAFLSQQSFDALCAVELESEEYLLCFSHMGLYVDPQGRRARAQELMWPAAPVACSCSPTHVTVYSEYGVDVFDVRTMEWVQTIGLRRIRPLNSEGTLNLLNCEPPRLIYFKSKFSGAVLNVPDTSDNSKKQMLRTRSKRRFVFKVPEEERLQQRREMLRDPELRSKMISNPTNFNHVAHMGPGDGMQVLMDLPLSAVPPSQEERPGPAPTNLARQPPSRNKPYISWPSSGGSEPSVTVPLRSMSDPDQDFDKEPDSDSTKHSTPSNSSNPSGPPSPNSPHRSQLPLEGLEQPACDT

FLT4 (human) = FLT4 (human) (UniProt P35916)
ANKK1 (human) = ANKK1 (human) (UniProt Q8NFD2)
Chain of ANKK1 (human) (Q8NFD2 whole entry, looked up): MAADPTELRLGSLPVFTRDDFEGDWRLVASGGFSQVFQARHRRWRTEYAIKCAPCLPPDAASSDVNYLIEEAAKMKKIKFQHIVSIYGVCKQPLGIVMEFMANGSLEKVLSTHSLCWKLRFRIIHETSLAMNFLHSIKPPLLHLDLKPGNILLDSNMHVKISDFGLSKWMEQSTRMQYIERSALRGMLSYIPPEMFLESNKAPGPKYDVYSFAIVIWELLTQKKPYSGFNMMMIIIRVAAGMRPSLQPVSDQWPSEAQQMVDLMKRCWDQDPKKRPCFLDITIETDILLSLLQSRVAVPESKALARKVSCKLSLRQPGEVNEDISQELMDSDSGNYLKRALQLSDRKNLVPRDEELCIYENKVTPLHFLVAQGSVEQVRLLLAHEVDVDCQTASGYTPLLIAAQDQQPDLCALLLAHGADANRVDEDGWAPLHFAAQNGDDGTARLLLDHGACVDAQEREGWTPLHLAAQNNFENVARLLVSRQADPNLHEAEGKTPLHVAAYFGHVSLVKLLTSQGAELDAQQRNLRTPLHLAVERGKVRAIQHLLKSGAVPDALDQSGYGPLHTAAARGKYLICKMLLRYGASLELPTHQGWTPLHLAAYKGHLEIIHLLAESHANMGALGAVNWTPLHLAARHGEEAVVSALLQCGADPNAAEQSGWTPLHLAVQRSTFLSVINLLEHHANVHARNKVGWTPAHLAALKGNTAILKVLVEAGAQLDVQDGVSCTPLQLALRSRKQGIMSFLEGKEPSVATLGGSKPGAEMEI

MAP2K6 (human) = MAP2K6 (human) (UniProt P52564)
TNK2 (human) = TNK2 (human) (UniProt Q07912)
CHEK2 (human) = CHEK2 (human) (UniProt O96017)
Chain of CHEK2 (human) (O96017 whole entry, looked up): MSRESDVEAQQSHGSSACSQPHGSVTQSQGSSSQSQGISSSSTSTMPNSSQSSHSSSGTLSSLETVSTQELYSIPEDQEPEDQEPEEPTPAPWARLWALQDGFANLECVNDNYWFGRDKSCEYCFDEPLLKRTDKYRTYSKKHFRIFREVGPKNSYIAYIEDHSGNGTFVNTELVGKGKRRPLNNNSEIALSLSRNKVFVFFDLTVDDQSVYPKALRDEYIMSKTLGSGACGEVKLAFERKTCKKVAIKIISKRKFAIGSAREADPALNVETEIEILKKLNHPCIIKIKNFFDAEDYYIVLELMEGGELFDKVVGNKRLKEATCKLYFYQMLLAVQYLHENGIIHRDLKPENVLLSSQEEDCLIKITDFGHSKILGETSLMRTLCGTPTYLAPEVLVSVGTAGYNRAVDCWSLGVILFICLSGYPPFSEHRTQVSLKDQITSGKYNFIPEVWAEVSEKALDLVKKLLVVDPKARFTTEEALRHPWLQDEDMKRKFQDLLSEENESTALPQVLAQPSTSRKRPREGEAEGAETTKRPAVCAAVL

NEK1 (human) = NEK1 (human) (UniProt Q96PY6)
NTRK3 (human) = NTRK3 (human) (UniProt Q16288)
NEK7 (human) = NEK7 (human) (UniProt Q8TDX7)
CAMK2D (human) = CAMK2D (human) (UniProt Q13557)
Chain of CAMK2D (human) (Q13557 whole entry, looked up): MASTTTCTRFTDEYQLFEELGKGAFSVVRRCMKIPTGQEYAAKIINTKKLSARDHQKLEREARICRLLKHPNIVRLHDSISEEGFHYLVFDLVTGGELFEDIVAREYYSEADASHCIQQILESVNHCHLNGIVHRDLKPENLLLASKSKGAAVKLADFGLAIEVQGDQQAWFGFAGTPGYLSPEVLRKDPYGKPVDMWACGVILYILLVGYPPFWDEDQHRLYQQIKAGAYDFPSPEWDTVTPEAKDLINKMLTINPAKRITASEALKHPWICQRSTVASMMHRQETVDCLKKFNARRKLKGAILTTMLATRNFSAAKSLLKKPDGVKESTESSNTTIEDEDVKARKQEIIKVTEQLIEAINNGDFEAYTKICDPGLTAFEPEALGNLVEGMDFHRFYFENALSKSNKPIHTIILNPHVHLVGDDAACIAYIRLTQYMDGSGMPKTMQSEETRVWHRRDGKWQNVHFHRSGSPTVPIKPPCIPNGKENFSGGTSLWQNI

TGFBR1 (human) = TGFBR1 (human) (UniProt P36897)
BTK (human) = BTK (human) (UniProt Q06187)
PKN2 (human) = PKN2 (human) (UniProt Q16513)
[4] = test system: RET (human), P07949 [V804L]
PRKAA2 (human) = PRKAA2 (human) (UniProt P54646)
PHKG1 (human) = PHKG1 (human) (UniProt Q16816)
RPS6KA4 KD1 (human) = RPS6KA4 KD1 (human) (UniProt O75676)
SLK (human) = SLK (human) (UniProt Q9H2G2)
DCLK2 (human) = DCLK2 (human) (UniProt Q8N568)
[5] = test system: ABL1 (human), P00519 [Y253F]
STK35 (human) = STK35 (human) (UniProt Q8TDR2)
EPHA5 (human) = EPHA5 (human) (UniProt P54756)
INSRR (human) = INSRR (human) (UniProt P14616)
MAPK12 (human) = MAPK12 (human) (UniProt P53778)
AKT3 (human) = AKT3 (human) (UniProt Q9Y243)
MAP4K1 (human) = MAP4K1 (human) (UniProt Q92918)
ROCK2 (human) = ROCK2 (human) (UniProt O75116)
PAK1 (human) = PAK1 (human) (UniProt Q13153)
Chain of PAK1 (human) (Q13153 whole entry, looked up): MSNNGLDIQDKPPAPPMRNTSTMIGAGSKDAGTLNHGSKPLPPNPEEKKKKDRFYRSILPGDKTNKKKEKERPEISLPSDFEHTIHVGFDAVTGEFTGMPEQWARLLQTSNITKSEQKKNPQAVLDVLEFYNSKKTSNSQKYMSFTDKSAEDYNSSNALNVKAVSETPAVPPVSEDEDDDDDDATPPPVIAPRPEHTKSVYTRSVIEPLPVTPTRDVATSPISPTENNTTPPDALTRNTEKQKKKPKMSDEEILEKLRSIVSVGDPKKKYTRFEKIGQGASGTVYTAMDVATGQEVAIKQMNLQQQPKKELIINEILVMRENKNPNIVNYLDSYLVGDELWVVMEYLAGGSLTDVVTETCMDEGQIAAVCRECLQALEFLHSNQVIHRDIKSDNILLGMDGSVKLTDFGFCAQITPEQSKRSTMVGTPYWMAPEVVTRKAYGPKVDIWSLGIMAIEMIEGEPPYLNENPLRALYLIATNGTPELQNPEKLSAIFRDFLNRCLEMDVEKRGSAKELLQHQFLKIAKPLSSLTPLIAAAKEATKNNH

WEE2 (human) = WEE2 (human) (UniProt P0C1S8)
[6] = target: JAK1 JH1 catalytic (human) (UniProt P23458)
RPS6KA5 KD1 (human) = RPS6KA5 KD1 (human) (UniProt O75582)
FGFR4 (human) = FGFR4 (human) (UniProt P22455)
RET (human) = RET (human) (UniProt P07949)
[7] = test system: ABL1 (human), P00519 [H396P]
ACVRL1 (human) = ACVRL1 (human) (UniProt P37023)
TEC (human) = TEC (human) (UniProt P42680)

Chain of BRSK1 (human) (Q8TDC3 whole entry, looked up): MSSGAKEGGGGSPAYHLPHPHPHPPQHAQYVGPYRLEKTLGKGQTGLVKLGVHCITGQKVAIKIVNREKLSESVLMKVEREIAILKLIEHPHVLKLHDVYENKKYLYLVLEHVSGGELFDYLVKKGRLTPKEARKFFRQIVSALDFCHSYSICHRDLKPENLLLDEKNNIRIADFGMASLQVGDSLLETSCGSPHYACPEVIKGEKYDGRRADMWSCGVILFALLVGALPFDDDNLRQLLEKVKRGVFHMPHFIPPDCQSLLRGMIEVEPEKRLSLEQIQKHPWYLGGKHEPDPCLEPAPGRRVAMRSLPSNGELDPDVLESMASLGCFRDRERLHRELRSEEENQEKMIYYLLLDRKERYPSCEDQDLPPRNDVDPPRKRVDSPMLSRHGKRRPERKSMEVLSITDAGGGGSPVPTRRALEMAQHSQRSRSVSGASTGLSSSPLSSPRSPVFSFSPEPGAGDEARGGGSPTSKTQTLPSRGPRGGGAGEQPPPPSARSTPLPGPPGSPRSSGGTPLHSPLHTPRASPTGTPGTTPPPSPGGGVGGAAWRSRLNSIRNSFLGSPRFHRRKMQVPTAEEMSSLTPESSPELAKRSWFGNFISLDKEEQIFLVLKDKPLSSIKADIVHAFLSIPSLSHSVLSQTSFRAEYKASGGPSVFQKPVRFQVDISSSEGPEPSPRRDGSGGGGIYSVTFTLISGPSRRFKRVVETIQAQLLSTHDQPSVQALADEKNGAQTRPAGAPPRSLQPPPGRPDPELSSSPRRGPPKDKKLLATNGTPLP

## Nc1cccc(-c2cc(/C=C3\SC(=O)NC3=O)c[nH]c2=O)c1
[1]
  kinase still bound, per cent of control: 29%
[2]
  kinase still bound, per cent of control: 14%
[3]
  kinase still bound, per cent of control: 16%

## O=C1NC(=S)S/C1=C\c1ccc(-c2cncc3ccccc23)o1
BRSK1 (human)
  kinase still bound, per cent of control: 28%
PAK2 (human)
  kinase still bound, per cent of control: 31%
PAK7 (human)
  kinase still bound, per cent of control: 11%
CDC42BPB (human)
  kinase still bound, per cent of control: 30%
FLT4 (human)
  kinase still bound, per cent of control: 28%
ANKK1 (human)
  kinase still bound, per cent of control: 34%
MAP2K6 (human)
  kinase still bound, per cent of control: 24%
TNK2 (human)
  kinase still bound, per cent of control: 34%
CHEK2 (human)
  kinase still bound, per cent of control: 14%
NEK1 (human)
  kinase still bound, per cent of control: 31%
NTRK3 (human)
  kinase still bound, per cent of control: 32%
NEK7 (human)
  kinase still bound, per cent of control: 17%
CAMK2D (human)
  kinase still bound, per cent of control: 32%

## N=C1NC(=O)/C(=C/c2ccc(-c3cncc4ccccc34)o2)S1
BRSK1 (human)
  kinase still bound, per cent of control: 6.6%
PAK2 (human)
  kinase still bound, per cent of control: 24%
TGFBR1 (human)
  kinase still bound, per cent of control: 34%
PAK7 (human)
  kinase still bound, per cent of control: 13%
BTK (human)
  kinase still bound, per cent of control: 31%
PKN2 (human)
  kinase still bound, per cent of control: 32%
[4]
  kinase still bound, per cent of control: 23%
PRKAA2 (human)
  kinase still bound, per cent of control: 33%
CHEK2 (human)
  kinase still bound, per cent of control: 33%
PHKG1 (human)
  kinase still bound, per cent of control: 23%
NEK1 (human)
  kinase still bound, per cent of control: 33%
NEK7 (human)
  kinase still bound, per cent of control: 15%
CAMK2D (human)
  kinase still bound, per cent of control: 7.6%
RPS6KA4 KD1 (human)
  kinase still bound, per cent of control: 15%

## CN1C(=O)[C@H]2CCC[C@H]2N(C2CCCC2)c2nc(Nc3ccc(C(N)=O)cc3)ncc21
ANKK1 (human)
  kinase still bound, per cent of control: 26%
[2]
  kinase still bound, per cent of control: 19%
SLK (human)
  kinase still bound, per cent of control: 3.4%
DCLK2 (human)
  kinase still bound, per cent of control: 18%

## CN1C(=O)c2ccccc2N(C)c2nc(Nc3ccc(N4CCC(O)CC4)cc3)ncc21
BRSK1 (human)
  kinase still bound, per cent of control: 56%
[5]
  kinase still bound, per cent of control: 1.9%
STK35 (human)
  kinase still bound, per cent of control: 96%
EPHA5 (human)
  kinase still bound, per cent of control: 100%
INSRR (human)
  kinase still bound, per cent of control: 96%
MAPK12 (human)
  kinase still bound, per cent of control: 100%
PAK2 (human)
  kinase still bound, per cent of control: 81%
AKT3 (human)
  kinase still bound, per cent of control: 100%
TGFBR1 (human)
  kinase still bound, per cent of control: 73%
MAP4K1 (human)
  kinase still bound, per cent of control: 64%
PAK7 (human)
  kinase still bound, per cent of control: 87%
BTK (human)
  kinase still bound, per cent of control: 100%
CDC42BPB (human)
  kinase still bound, per cent of control: 100%
PKN2 (human)
  kinase still bound, per cent of control: 92%
ROCK2 (human)
  kinase still bound, per cent of control: 86%
FLT4 (human)
  kinase still bound, per cent of control: 100%
[4]
  kinase still bound, per cent of control: 1.7%
PRKAA2 (human)
  kinase still bound, per cent of control: 31%
ANKK1 (human)
  kinase still bound, per cent of control: 100%
PAK1 (human)
  kinase still bound, per cent of control: 100%
WEE2 (human)
  kinase still bound, per cent of control: 70%
MAP2K6 (human)
  kinase still bound, per cent of control: 100%
TNK2 (human)
  kinase still bound, per cent of control: 29%
CHEK2 (human)
  kinase still bound, per cent of control: 81%
[6]
  kinase still bound, per cent of control: 30%
PHKG1 (human)
  kinase still bound, per cent of control: 95%
NEK1 (human)
  kinase still bound, per cent of control: 93%
NTRK3 (human)
  kinase still bound, per cent of control: 82%
[1]
  kinase still bound, per cent of control: 93%
NEK7 (human)
  kinase still bound, per cent of control: 100%
CAMK2D (human)
  kinase still bound, per cent of control: 88%
[2]
  kinase still bound, per cent of control: 1.9%
RPS6KA5 KD1 (human)
  kinase still bound, per cent of control: 100%
RPS6KA4 KD1 (human)
  kinase still bound, per cent of control: 100%
[3]
  kinase still bound, per cent of control: 100%
FGFR4 (human)
  kinase still bound, per cent of control: 73%
RET (human)
  kinase still bound, per cent of control: 15%
SLK (human)
  kinase still bound, per cent of control: 100%
[7]
  kinase still bound, per cent of control: 0.15%
ACVRL1 (human)
  kinase still bound, per cent of control: 100%
TEC (human)
  kinase still bound, per cent of control: 100%
DCLK2 (human)
  kinase still bound, per cent of control: 0.6%

## COc1cc(N2CCN(C)CC2)ccc1Nc1ncc2c(n1)N(C)c1sccc1C(=O)N2C
BRSK1 (human)
  kinase still bound, per cent of control: 81%
[5]
  kinase still bound, per cent of control: 99%
STK35 (human)
  kinase still bound, per cent of control: 89%
EPHA5 (human)
  kinase still bound, per cent of control: 80%
INSRR (human)
  kinase still bound, per cent of control: 96%
MAPK12 (human)
  kinase still bound, per cent of control: 76%
PAK2 (human)
  kinase still bound, per cent of control: 71%
AKT3 (human)
  kinase still bound, per cent of control: 100%
TGFBR1 (human)
  kinase still bound, per cent of control: 100%
MAP4K1 (human)
  kinase still bound, per cent of control: 82%
PAK7 (human)
  kinase still bound, per cent of control: 71%
BTK (human)
  kinase still bound, per cent of control: 82%
CDC42BPB (human)
  kinase still bound, per cent of control: 99%
PKN2 (human)
  kinase still bound, per cent of control: 90%
ROCK2 (human)
  kinase still bound, per cent of control: 57%
FLT4 (human)
  kinase still bound, per cent of control: 96%
[4]
  kinase still bound, per cent of control: 89%
PRKAA2 (human)
  kinase still bound, per cent of control: 94%
ANKK1 (human)
  kinase still bound, per cent of control: 25%
PAK1 (human)
  kinase still bound, per cent of control: 81%
WEE2 (human)
  kinase still bound, per cent of control: 94%
MAP2K6 (human)
  kinase still bound, per cent of control: 100%
TNK2 (human)
  kinase still bound, per cent of control: 25%
CHEK2 (human)
  kinase still bound, per cent of control: 77%
[6]
  kinase still bound, per cent of control: 100%
PHKG1 (human)
  kinase still bound, per cent of control: 69%
NEK1 (human)
  kinase still bound, per cent of control: 77%
NTRK3 (human)
  kinase still bound, per cent of control: 68%
[1]
  kinase still bound, per cent of control: 63%
NEK7 (human)
  kinase still bound, per cent of control: 93%
CAMK2D (human)
  kinase still bound, per cent of control: 59%
[2]
  kinase still bound, per cent of control: 62%
RPS6KA5 KD1 (human)
  kinase still bound, per cent of control: 86%
RPS6KA4 KD1 (human)
  kinase still bound, per cent of control: 100%
[3]
  kinase still bound, per cent of control: 82%
FGFR4 (human)
  kinase still bound, per cent of control: 40%
RET (human)
  kinase still bound, per cent of control: 85%
SLK (human)
  kinase still bound, per cent of control: 87%
[7]
  kinase still bound, per cent of control: 82%
ACVRL1 (human)
  kinase still bound, per cent of control: 99%
TEC (human)
  kinase still bound, per cent of control: 91%
DCLK2 (human)
  kinase still bound, per cent of control: 1%

## CS(=O)(=O)Nc1ccc(-c2cc(/C=C3\SC(=N)NC3=O)c[nH]c2=O)cc1
TGFBR1 (human)
  kinase still bound, per cent of control: 24%
PKN2 (human)
  kinase still bound, per cent of control: 15%

## N=C1NC(=O)/C(=C/c2ccc(-c3csc4ccccc34)o2)S1
CDC42BPB (human)
  kinase still bound, per cent of control: 32%
NEK7 (human)
  kinase still bound, per cent of control: 33%

## CS(=O)(=O)Nc1ccc(-c2ncc(/C=C3\SC(=N)NC3=O)s2)cc1
FLT4 (human)
  kinase still bound, per cent of control: 3.6%
RET (human)
  kinase still bound, per cent of control: 20%
SLK (human)
  kinase still bound, per cent of control: 1.4%

## CS(=O)(=O)Nc1ccc(-c2cncc(/C=C3\SC(=N)NC3=O)c2)cc1
STK35 (human)
  kinase still bound, per cent of control: 30%
TGFBR1 (human)
  kinase still bound, per cent of control: 16%
FLT4 (human)
  kinase still bound, per cent of control: 28%
PAK1 (human)
  kinase still bound, per cent of control: 9.4%
SLK (human)
  kinase still bound, per cent of control: 2.8%
ACVRL1 (human)
  kinase still bound, per cent of control: 3.6%

## N=C1NC(=O)/C(=C/c2ccc(-c3ccc(C(N)=O)cc3O)o2)S1
PKN2 (human)
  kinase still bound, per cent of control: 31%
CAMK2D (human)
  kinase still bound, per cent of control: 34%
